The results in this text go back to patent publication US20090270442A1, “POLYMORPHS OF HYDROCHLORIDE SALT OF 5-(3-(ETHYLSULFONYL)PHENYL)-3,8-DIMETHYL-N-(1-METHYLPIPERIDIN-4-YL)-9H-PYRIDO[2,3-B]INDOLE-7-CARBOXAMIDE AND METHODS OF USE THEREFOR” (TAKEDA PHARMACEUTICAL COMPANY LIMITED, priority 2008, published 2009).

Common to all, as to assay type: physicochemical
Data set [1] in a line: DI water slurry during the concurrent process control screen. Conditions: several hours (2-24 hours).
Data set [2] can be described thus: Moisture-sorption analysis (adsorption/desorption, then drying 1 h at 80° C. and XRPD) (Table 40). On the procedure: Moisture-sorption experiments were carried out on three forms by first drying the sample at 0% RH and 25° C. until an equilibrium weight was reached or for a maximum of four hours. The sample was then subjected to an isothermal (25° C.) adsorption scan from 10 to 90% RH in steps of 10%. The sample was allowed to equilibrate to an asymptotic weight at each point for a maximum of four hours. Following adsorption, a desorption scan from […] to 0% RH (at 25° C.) was run in steps of −10%, again allowing a maximum of four hours for equilibration to an asymptotic weight. The sample was then dried for one hour at 80° C. and the resulting solid analyzed by XRPD.

A short description of data set [3]: 1 week slurry experiments in water, IPA, EtOAc, MeCN, EtOH and dioxane, form by XRPD (Table 34). The conditions noted are these: room temperature, one week. Here is the method: Each vial was charged with approximately 25-30 mg of API and 1 mL of the corresponding solvent, followed by stirring at room temperature for one week. […] The obtained solids were isolated by filtration, dried under vacuum at room temperature and analyzed by XRPD.

A short description of data set [4]: Karl Fischer analysis (KF), water content. The conditions noted are these: theoretical for a monohydrate 3.2%. Here is the method:
Water content was determined by adding solid sample to the instrument with HYDRANAL-Coulomat AD. Micrograms of water were determined by coulometric titration.

A short description of data set [5]: Humidity chamber study at 0% and 95% RH, one week, XRPD and KF (Table 38). Conditions: 95% RH for one week, ambient temperature. Here is the method:
The 0% RH chamber was prepared with drierite and the 95% RH chamber was made with a saturated solution of Na2HPO4.12H2O in DI water. The chambers were equilibrated for >1 week prior to introducing samples. Samples were placed in Teflon-lined caps for scintillation vials and allowed to equilibrate for one week then analyzed by XRPD and KF to determine form and water content.
FIG. 60 summarizes the conversion of the forms of Compound 1 observed from slurry and humidity chamber studies.

Data set [6] can be described thus: MeCN/water slurry experiments of Forms A and C at ambient temperature (Table 35). Conditions: MeCN/water at different ratios. Here is the method: Slurry experiments of Compound 1, Forms A and C, were conducted in mixtures of MeCN and water. Each vial was charged with approximately 40 mg of Compound 1 (pure Form A, pure Form C, or 50:50 mixtures) and 2 mL of MeCN/water mixture in a 1:9, 1:1, and 9:1 ratio. […] All samples were stirred at room temperature for approximately 24 hours. An aliquot (1 mL) of the suspension was taken from the slurries (samples #1, 3, 4, 6, 7 and 9) for determination of form by XRPD. All aliquots were filtered and dried in vacuo at 30 mm Hg and ambient temperature. All samples were stirred at ambient temperature for an additional six days, filtered, dried, and again the solid form and filterability were determined.

On to `CCS(=O)(=O)c1cccc(-c2cc(C(=O)NC3CCN(C)CC3)c(C)c3[nH]c4ncc(C)cc4c23)c1` [Form B], for which the “form isolated after slurry in DI water” value in data set [1] is on record as “Form A was isolated”.
Turning to `CCS(=O)(=O)c1cccc(-c2cc(C(=O)NC3CCN(C)CC3)c(C)c3[nH]c4ncc(C)cc4c23)c1` [Form C], in data set [2] (25° C.), the “hygroscopicity (moisture sorption curve)” value is listed as “slightly hygroscopic” and the hysteresis upon desorption result is given as “not observed”. The maximum water uptake in data set [2] (at 90% RH, 25° C.) is recorded as 1.9%. Besides, in data set [2] (dried for one hour at 80° C.), the “XRPD pattern after drying” value is recorded as “consistent to the starting form”. Moreover, in data set [3] (solvents other than water), the “form after slurry in non-aqueous solvents” value is “stable anhydrate form in non-aqueous environments”. The “form isolated after slurry in water” value in data set [3] (water slurry) is “converted to the monohydrate Form A”. In addition, in data set [4], the “water content by KF” value is 1.4%. For the same compound, the “form after humidity exposure” value in data set [5] is on record as “converted to Form A”. Also, in data set [6], the “form after acetonitrile/water slurries” value is “converted to the monohydrate Form A”.
